Laboratory results published in ChEMBL document CHEMBL3286227, “Guanidinium-based derivatives: searching for new kinase inhibitors” (Eur J Med Chem, 2014).
Activity calls are given as the source filed them. The rule behind the calls is not given here.

Tests used:
HL-60 [1] = assay: Cell cycle arrest in human HL60 cells assessed as accumulation at G0/G1 phase at 25 uM after 72 hrs by propidium iodide staining-based flow cytometry (reference value: 65.7 +/- 0.1%); assay type: functional
HL-60 [2] = assay: Cell cycle arrest in human HL60 cells assessed as accumulation at G0/G1 phase at 50 uM after 72 hrs by propidium iodide staining-based flow cytometry (reference value: 65.7 +/- 0.1%); assay type: functional
HL-60 [3] = assay: Cell cycle arrest in human HL60 cells assessed as accumulation at S phase at 25 uM after 72 hrs by propidium iodide staining-based flow cytometry (reference value: 16.4 +/- 0.8%); assay type: functional
HL-60 [4] = assay: Cell cycle arrest in human HL60 cells assessed as accumulation at G2/M phase at 25 uM after 72 hrs by propidium iodide staining-based flow cytometry (reference value: 14.8 +/- 0.7%); assay type: functional
HL-60 [5] = assay: Cell cycle arrest in human HL60 cells assessed as accumulation at Gn phase at 10 uM after 48 hrs by propidium iodide staining-based flow cytometry (reference value: 2.49 +/- 0.4%); assay type: functional
HL-60 [6] = assay: Cell cycle arrest in human HL60 cells assessed as accumulation at Gn phase at 50 uM after 72 hrs by propidium iodide staining-based flow cytometry (reference value: 2.49 +/- 0.3%); assay type: functional
[7] = target: Glycogen synthase kinase-3 beta (Homo sapiens, UniProt P49841); assay: Inhibition of human recombinant GSK-3 beta after 30 mins by luminescence assay
[8] = target: Serine/threonine-protein kinase B-raf (Homo sapiens) (UniProt P15056); assay: Competitive binding to B-RAF kinase (unknown origin) at 100 nM to 100 uM after 60 to 120 mins by FRET analysis
HL-60 [9] = assay: Cell cycle arrest in human HL60 cells assessed as accumulation at pre-G1 phase at 1 uM after 48 hrs by propidium iodide staining-based flow cytometry (reference value: 0.17%); assay type: functional
HL-60 [10] = assay: Cell cycle arrest in human HL60 cells assessed as accumulation at pre-G1 phase at 10 uM after 72 hrs by propidium iodide staining-based flow cytometry (reference value: 0.14%); assay type: functional
HL-60 [11] = assay: Cell cycle arrest in human HL60 cells assessed as accumulation at pre-G1 phase at 25 uM after 72 hrs by propidium iodide staining-based flow cytometry (reference value: 0.14%); assay type: functional
HL-60 [12] = assay: Cell cycle arrest in human HL60 cells assessed as accumulation at G0/G1 phase at 50 uM after 48 hrs by propidium iodide staining-based flow cytometry (reference value: 57.0 +/- 1.0%); assay type: functional

Sequence of Serine/threonine-protein kinase B-raf (Homo sapiens) (P15056 whole entry): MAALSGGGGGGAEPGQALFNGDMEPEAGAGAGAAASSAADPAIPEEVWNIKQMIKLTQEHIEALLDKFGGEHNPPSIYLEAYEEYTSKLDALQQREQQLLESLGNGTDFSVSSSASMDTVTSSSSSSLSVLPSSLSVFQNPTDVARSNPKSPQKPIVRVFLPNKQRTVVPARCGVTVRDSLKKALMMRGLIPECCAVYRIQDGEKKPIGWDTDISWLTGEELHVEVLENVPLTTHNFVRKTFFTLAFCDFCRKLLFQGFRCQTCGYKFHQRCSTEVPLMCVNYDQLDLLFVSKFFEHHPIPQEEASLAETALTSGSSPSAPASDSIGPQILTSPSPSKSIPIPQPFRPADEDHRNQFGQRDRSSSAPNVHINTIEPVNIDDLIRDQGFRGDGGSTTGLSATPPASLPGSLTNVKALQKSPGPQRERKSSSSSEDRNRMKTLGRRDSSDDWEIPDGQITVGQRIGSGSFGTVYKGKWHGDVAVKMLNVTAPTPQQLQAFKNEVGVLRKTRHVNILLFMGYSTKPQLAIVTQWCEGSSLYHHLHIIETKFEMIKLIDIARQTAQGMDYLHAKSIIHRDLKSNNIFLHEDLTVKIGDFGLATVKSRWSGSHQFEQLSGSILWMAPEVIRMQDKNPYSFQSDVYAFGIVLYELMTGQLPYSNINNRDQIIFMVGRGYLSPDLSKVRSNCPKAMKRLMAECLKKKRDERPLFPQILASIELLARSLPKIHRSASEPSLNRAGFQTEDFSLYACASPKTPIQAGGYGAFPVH
Sequence of Glycogen synthase kinase-3 beta (P49841 whole entry): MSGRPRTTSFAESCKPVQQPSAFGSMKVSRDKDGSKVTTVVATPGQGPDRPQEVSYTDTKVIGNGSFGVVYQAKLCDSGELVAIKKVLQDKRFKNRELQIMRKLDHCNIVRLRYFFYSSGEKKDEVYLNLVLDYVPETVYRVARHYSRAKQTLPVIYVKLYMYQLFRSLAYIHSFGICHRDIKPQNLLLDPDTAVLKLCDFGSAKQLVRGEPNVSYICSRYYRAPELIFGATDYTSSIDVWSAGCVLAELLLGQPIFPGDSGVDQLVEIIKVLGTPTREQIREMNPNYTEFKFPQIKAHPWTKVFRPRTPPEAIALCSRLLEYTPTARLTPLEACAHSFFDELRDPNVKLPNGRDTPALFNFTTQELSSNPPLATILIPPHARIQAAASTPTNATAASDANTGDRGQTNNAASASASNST

IC50 [7]: > 100 µM | Activity [8]: inactive
Structure (SMILES): Cl.N=C(N)Nc1ccc(Oc2cccc(NC(=N)Nc3ccc(Cl)c(C(F)(F)F)c3)c2)cc1
Activity (HL-60 [1]): 73.4% | Activity (HL-60 [2]): 43.7% | Activity (HL-60 [3]): 4.19% | Activity (HL-60 [4]): 12.9% | Activity (HL-60 [5]): 2.17% | Activity (HL-60 [6]): 1.75% | Activity (HL-60 [9]): 0.13% | Activity (HL-60 [10]): 0.23% | Activity (HL-60 [11]): 2.22% | Activity (HL-60 [12]): 44.6%
